Test results reported in ChEMBL document CHEMBL1201862, “PubChem BioAssay data set” (2004).
“And” between values parts separate entries of the source, which are not always exact repeats. Equal values may be shown once. The source made the active and inactive calls.

What was measured:
cells [1] = type: functional, cell-based
cells [2] = type: functional, cell-based; remark: listed apart in the source
[3] = Luminescence Cell-Based Dose Confirmation HTS to Identify Activators of 5'UTR Stem-Loop Driven Alpha-Synuclein mRNA Translation in H4 Neuroglioblastoma Cells. [Related pubchem assays: 1829 (Project Summary), 1814 (Primary HTS)]; type: functional
[4] = Luminescence Cell-Based Dose Response HTS to Identify Activators of Luciferase Translation or Activity in H4 […] Cells. [Related pubchem assays: 1829 (Project Summary), 1814 (Primary HTS)]; type: functional
Cytochrome P450 2D6 = Cytochrome P450 2D6 (Homo sapiens, UniProt P10635);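 note: CYP2D6 member of a cytochrome P450 panel assay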
Cytochrome P450 2C19 = Cytochrome P450 2C19 (Homo sapiens, UniProt P33261); assay: Cytochrome panel assay with activity outcomes. Panel member name: p450-cyp2c19 Compounds with AC50 equal or less than 10 uM are considered active; type: functional; conditions: read-out: AC50
[5] = biological target: T1, DNA repair and recombination protein RAD54-like (Homo sapiens, UniProt Q92698); assay: RAD54 Holliday junction migration blockers – biochemical, fluorescence, cherry-picked samples, dose series, confirmation (AID 651657); type: functional
T1 sequence (Q92698 whole entry): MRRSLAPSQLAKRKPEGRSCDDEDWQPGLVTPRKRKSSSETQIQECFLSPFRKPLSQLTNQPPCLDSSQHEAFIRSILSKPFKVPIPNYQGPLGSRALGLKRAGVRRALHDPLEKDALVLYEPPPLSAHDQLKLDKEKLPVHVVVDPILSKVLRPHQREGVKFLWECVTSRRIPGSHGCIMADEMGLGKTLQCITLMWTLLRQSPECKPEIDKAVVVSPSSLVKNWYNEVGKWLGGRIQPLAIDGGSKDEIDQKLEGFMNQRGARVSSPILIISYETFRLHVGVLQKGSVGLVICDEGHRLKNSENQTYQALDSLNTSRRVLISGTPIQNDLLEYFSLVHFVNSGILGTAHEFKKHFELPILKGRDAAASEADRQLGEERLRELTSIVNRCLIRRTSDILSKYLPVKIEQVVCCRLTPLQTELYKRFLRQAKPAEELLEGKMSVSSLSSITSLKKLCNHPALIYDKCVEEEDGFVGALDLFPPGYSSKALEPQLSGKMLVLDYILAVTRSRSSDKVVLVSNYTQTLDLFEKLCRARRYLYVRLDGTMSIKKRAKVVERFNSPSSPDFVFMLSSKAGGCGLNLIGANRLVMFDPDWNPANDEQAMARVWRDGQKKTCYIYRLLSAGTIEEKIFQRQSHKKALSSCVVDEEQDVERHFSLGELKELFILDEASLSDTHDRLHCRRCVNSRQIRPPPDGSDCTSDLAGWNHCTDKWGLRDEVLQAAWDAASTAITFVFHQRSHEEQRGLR

H4 = assay: Luminescence Cell-Based Dose Response HTS to Identify Activators of 5'UTR Stem-Loop Driven Prion Protein mRNA Translation in H4 Neuroglioblastoma Cells. [Related pubchem assays: 1829 (Project Summary), 1814 (Primary HTS)]; type: functional; conditions: Homo sapiens
[6] = acridine orange displacement from DNA – biochemical, fluorescence polarization, cherry-pick, artefact control for RAD54 inhibitor project, dose response (AID 651673); type: functional
[7] = biological target: T2, Tyrosine-protein phosphatase non-receptor type 22 (Homo sapiens, UniProt Q9Y2R2); assay: PTPN22 enzyme inhibitors – biochemical, fluorescence, LYP catalytic domain, selectivity assay for LMPTP inhibitor project, dose response (AID 652006); type: functional; conditions: read-out: IC50_Mean
T2 sequence (Q9Y2R2 whole entry): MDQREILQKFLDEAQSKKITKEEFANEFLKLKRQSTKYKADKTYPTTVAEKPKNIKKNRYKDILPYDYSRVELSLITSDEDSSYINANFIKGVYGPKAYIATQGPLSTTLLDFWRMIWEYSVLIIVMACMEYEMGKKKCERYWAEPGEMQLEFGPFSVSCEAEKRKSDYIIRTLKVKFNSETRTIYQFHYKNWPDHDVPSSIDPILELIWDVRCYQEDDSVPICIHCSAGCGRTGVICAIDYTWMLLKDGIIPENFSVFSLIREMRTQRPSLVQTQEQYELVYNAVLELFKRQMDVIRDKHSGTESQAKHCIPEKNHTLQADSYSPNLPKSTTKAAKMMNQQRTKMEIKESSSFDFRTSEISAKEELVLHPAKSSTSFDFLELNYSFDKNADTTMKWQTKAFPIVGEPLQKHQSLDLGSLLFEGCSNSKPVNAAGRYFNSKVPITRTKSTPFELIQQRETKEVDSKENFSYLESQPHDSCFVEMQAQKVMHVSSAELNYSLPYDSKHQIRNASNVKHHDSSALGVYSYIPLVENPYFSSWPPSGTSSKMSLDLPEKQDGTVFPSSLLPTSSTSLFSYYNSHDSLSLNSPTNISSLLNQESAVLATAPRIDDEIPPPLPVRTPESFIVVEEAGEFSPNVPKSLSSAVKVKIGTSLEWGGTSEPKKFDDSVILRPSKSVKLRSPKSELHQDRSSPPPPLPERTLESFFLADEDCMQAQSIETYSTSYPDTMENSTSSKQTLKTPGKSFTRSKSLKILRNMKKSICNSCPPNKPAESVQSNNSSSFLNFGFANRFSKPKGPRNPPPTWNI

[8] = biological target: T3, Low molecular weight phosphotyrosine protein phosphatase (Homo sapiens, UniProt P24666); type: functional; conditions: read-out: IC50_Mean
T3 sequence (P24666 whole entry): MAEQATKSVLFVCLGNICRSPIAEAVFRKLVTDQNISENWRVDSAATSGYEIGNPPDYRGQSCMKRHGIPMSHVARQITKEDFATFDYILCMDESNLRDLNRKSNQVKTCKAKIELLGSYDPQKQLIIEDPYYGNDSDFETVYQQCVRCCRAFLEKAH

[9] = biological target: T4, Carboxy-terminal domain RNA polymerase II polypeptide A small phosphatase 1 (Homo sapiens, UniProt Q9GZU7); assay: CTDSP1 inhibitors, concentration-response, biochemical, absorbance readout, ultra-high-throughput screen actives (AID 540297); type: functional
T4 sequence (Q9GZU7 whole entry): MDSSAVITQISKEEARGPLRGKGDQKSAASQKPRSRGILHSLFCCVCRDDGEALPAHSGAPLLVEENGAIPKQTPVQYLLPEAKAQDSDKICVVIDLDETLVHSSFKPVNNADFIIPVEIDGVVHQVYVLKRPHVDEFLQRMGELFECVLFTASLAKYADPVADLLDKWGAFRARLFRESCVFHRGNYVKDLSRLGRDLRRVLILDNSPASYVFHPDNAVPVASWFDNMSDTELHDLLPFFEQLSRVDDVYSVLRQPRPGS

[10] = biological target: T3, Low molecular weight phosphotyrosine protein phosphatase; type: functional; conditions: read-out: IC50_Mean; remark: listed apart in the source
Cytochrome P450 2C9 = Cytochrome P450 2C9 (Homo sapiens, UniProt P11712)
Steroidogenic factor 1 = Steroidogenic factor 1 (Homo sapiens, UniProt Q13285); assay: Counterscreen for inverse agonists of the liver receptor homolog-1 (LRH-1; NR5A2): Luminescence-based cell-based high throughput dose response assay to identify inverse agonists of the Steroidogenic Factor 1 Nuclear Receptor (SF1; NR5A1).; type: functional
[11] = biological target: Nuclear receptor subfamily 5 group A member 2 (Homo sapiens, UniProt O00482); type: functional, cell-based;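 note: HEK293T cells transfected with LRH-1 and a StAR promoter luciferase reporter; potency for inhibitors that lower LRH-1 driven reporter light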
[12] = nonselective StAR promoter luciferase inhibitors – cell-based, luminescence, luciferase reporter, counter-screen for LRH-1 inverse agonist project, dose response (AID 651969); type: functional
Cryptococcus neoformans [13] = assay: Cryptococcus growth inhibition by alamar blue – cell lysis, cherry-picks, replicate tests, mechanism study for C. neoformans antifungal project, dose response (AID 686999); type: functional, organism-based
Cryptococcus neoformans [14] = assay: PubChem AID 686997; type: functional, organism-based
Beta-lactamase [15] = biological target: T5, Beta-lactamase (Pseudomonas aeruginosa, UniProt Q79MP6); assay: […] counterscreen for selective VIM-2 inhibitors: dose response biochemical high throughput screening assay to identify inhibitors of IMP-1 metallo-beta-lactamase.
Beta-lactamase [16] = biological target: T5, Beta-lactamase; assay: inhibition of IMP-1 beta-lactamase activity – biochemical, epi-absorbance, selectivity assay for VIM-2 inhibitor project, dose response (AID 1920)
Beta-lactamase [17] = biological target: Beta-lactamase (Salmonella choleraesuis (strain SC-B67), UniProt Q5J463); assay: Epi-absorbance-based counterscreen for selective VIM-2 inhibitors: dose response biochemical high throughput screening assay to identify inhibitors of TEM-1 serine-beta-lactamase.
[18] = Counterscreen for […] of the human trace amine associated receptor 1 (TAAR1): Fluorescence-based cell-based high throughput dose response assay to identify nonselective Ga16 agonists.; type: functional
[19] = Counterscreen for antagonists of the human trace amine associated receptor 1 (hTAAR1): Fluorescence-based cell-based high throughput dose response assay to identify nonselective Ga16 antagonists.; type: functional
HeLa = assay: viability loss in HeLa cells – cell-based, ATP luminescence, cherry-pick samples, cytotoxicity control, dose response (AID 687004); type: functional; conditions: Homo sapiens
[20] = biological target: DNA repair protein RAD52 homolog (Homo sapiens, UniProt P43351); type: functional, biochemical
[21] = biological target: T6, Ubiquitin-conjugating enzyme E2 N (Homo sapiens, UniProt P61088); type: functional;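 note: Dose-response confirmation in a TR-FRET assay detecting UBC13-driven polyubiquitin chain formation, inhibition measured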
T6 sequence (P61088 whole entry): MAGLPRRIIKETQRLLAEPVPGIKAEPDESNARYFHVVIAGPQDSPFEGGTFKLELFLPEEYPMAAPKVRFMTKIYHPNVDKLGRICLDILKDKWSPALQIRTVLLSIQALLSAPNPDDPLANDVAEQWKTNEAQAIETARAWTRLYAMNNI

T5 sequence (Q79MP6 whole entry): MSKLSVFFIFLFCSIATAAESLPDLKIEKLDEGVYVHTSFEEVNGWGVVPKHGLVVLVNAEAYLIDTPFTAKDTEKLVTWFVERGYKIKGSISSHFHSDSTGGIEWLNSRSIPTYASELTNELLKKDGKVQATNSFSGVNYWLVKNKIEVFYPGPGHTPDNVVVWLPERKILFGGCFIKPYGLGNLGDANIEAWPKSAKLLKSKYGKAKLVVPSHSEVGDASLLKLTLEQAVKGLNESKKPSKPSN
Cytochrome P450 2C19, sequence (P33261 whole entry): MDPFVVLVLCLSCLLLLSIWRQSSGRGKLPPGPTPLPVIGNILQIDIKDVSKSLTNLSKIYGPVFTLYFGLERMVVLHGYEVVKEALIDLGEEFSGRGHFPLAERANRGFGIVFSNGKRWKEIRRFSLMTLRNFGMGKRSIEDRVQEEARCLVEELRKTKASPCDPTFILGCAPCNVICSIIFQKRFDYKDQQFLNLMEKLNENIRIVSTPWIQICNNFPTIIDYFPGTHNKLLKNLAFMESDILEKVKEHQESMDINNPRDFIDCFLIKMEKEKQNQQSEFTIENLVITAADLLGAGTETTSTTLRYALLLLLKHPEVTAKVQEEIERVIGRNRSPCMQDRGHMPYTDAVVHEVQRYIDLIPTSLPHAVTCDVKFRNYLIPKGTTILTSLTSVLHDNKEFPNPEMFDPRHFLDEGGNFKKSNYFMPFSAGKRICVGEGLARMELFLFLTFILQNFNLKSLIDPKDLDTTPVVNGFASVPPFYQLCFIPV
Cytochrome P450 2D6, sequence (P10635 whole entry): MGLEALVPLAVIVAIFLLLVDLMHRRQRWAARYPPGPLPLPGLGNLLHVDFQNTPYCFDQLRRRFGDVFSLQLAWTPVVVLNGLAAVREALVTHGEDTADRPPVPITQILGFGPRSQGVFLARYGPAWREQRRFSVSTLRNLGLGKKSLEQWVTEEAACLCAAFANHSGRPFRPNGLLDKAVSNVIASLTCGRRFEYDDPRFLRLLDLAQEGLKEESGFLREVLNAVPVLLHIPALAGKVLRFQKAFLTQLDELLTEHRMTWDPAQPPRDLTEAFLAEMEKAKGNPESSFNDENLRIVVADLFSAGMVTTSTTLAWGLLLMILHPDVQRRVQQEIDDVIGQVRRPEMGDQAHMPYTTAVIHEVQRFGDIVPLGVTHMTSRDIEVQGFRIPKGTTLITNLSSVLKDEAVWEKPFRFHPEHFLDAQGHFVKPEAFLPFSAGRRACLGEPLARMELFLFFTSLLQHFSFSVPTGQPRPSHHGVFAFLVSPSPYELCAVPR
Beta-lactamase (Salmonella choleraesuis (strain SC-B67), UniProt Q5J463), sequence (Q5J463 whole entry): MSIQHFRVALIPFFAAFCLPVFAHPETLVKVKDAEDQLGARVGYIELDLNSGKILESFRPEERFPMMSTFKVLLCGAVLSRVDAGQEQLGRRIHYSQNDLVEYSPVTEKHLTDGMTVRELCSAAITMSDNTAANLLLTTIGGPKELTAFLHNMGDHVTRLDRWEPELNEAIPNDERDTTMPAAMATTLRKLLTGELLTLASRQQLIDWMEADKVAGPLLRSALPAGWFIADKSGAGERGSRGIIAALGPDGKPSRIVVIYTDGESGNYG
Nuclear receptor subfamily 5 group A member 2, sequence (O00482 whole entry): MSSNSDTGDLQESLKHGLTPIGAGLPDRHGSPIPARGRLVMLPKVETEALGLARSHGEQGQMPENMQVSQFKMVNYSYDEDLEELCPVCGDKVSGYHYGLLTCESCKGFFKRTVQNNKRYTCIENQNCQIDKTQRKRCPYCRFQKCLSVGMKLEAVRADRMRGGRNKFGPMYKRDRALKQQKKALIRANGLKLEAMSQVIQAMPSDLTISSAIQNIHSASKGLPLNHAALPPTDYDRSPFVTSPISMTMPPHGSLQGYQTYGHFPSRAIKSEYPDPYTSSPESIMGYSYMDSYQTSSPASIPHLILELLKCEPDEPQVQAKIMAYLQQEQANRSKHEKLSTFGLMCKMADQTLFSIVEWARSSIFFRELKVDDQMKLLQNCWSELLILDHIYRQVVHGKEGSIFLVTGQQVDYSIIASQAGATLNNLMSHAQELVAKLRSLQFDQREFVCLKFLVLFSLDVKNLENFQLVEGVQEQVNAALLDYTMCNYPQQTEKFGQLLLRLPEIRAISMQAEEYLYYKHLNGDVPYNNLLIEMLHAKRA
Steroidogenic factor 1, sequence (Q13285 whole entry): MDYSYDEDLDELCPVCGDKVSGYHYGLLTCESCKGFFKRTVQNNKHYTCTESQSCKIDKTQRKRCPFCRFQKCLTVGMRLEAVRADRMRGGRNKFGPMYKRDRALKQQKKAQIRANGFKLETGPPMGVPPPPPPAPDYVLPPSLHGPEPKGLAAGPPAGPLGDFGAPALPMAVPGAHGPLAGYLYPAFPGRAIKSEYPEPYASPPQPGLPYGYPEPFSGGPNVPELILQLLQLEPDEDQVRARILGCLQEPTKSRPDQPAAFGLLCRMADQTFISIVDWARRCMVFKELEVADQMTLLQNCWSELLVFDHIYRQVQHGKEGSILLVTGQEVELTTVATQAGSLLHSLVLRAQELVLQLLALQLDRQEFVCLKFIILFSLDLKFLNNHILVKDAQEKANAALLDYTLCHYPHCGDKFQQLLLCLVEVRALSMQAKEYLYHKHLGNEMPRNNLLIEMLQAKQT
Cytochrome P450 2C9, sequence (P11712 whole entry): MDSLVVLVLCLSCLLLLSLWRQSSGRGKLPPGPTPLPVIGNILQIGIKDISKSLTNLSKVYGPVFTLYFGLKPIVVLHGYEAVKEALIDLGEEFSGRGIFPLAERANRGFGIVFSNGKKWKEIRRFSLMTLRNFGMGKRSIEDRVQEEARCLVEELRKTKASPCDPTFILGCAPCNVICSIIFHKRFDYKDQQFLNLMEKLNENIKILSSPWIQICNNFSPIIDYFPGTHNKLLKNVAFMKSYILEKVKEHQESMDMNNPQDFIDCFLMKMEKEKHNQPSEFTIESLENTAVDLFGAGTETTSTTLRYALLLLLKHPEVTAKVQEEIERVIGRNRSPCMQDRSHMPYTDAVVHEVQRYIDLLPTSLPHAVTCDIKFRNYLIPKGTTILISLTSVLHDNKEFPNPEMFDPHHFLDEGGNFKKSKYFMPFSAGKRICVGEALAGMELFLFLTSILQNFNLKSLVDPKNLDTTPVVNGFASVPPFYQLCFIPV
DNA repair protein RAD52 homolog, sequence (P43351 whole entry): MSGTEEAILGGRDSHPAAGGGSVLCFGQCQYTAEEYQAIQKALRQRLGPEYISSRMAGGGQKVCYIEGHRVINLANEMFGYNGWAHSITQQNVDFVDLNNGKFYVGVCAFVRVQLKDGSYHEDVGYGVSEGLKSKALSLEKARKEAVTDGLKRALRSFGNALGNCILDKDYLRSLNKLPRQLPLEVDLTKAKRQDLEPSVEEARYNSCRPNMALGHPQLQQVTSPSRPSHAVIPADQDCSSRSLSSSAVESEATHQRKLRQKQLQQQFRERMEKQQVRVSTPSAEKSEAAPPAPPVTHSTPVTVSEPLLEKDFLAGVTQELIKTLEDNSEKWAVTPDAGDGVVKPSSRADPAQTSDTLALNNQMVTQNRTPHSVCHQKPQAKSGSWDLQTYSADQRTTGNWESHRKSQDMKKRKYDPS

For Cc1cc(C)c2c(N)c3ccccc3nc2n1, the EC50 (cells [1]) was 32.3 µM (active), the EC50 (cells [2]) was > 350 µM (not active) and the EC50 [3] was 3.6 µM (active). The EC50 [4] was 8.34 µM (active), the AC50 (Cytochrome P450 2D6) was 20 µM (inconclusive) and the AC50 (Cytochrome P450 2C19) was 5.62 µM (inconclusive). The AC50 [5] was 5.7 µM (active), the EC50 (H4) was > 120 µM (not active) and the AC50 [6] was 41.4 µM (active).

With O=C(NNC(=O)c1cc2cc3ccccc3nc2s1)c1cccc(Cl)c1 the IC50 [7] was 26.8 µM (inactive), the IC50 [8] was 8.67 µM (active) and the IC50 [9] was 1.9 µM (active). For the same molecule, the AC50 (Cytochrome P450 2C19) was 5.01 µM (inconclusive), the IC50 [10] was 10.7 µM (active) and the AC50 (Cytochrome P450 2C9) was 1.41 µM (inconclusive).

In the case of CCCc1cc(=O)oc2c(C)c(OCC(=O)NCCN3CCOCC3)ccc12, the IC50 (Steroidogenic factor 1) is reported as 12.4 µM (inactive), the IC50 [11] is reported as 35.9 µM (inactive) and the IC50 [12] is reported as 35.9 µM (inactive).

For COC(=O)C1=C(C)N(Cc2ccccc2)C(=S)N[C@H]1c1ccc(Br)cc1, the AC50 (Cryptococcus neoformans [13]) was 42.2 µM (active) and the AC50 (Cryptococcus neoformans [14]) was 50.4 µM (active) and 14.1 µM (active).

With O=C(CSc1nnc(NC(=O)C2CCCCC2)s1)NCc1ccco1 the IC50 (Beta-lactamase [15]) was > 59.6 µM (inactive), the IC50 (Beta-lactamase [16]) was > 59.6 µM (inactive) and the IC50 (Beta-lactamase [17]) was > 59.6 µM (inactive).

For O=C(CCC(=O)N1CCOCC1)NCCc1ccc(F)cc1, the EC50 [18] was > 29.9 µM (inactive) and the IC50 [19] was > 29.9 µM (inactive).

With CN1CCN(CCCNC(=O)c2ccc(/C=C3\Oc4ccccc4N(Cc4ccccc4F)C3=O)cc2)CC1 the AC50 (HeLa) was 17 µM (active), the AC50 [20] was 8.16 µM (active) and the IC50 [21] was > 20 µM (inactive).
